{"source": "patent US20040009486A1", "about": "“Compositions and methods utilizing DNA polymerases” (priority 1999, published 2004)", "format_in_all_cases": "biochemical", "key": {"pFL-35:pBluescript": {"system": "pFL-35:pBluescript", "assay": "Fidelity assay with unlabeled ddNTPs", "settings": "compared to JDF-3 P410L/A485T", "protocol": "A second set of fidelity assays was conducted to address the contribution of rhodamine dye to high ddG:dT and ddT:dC misinsertion frequency. A fluorescently labeled primer (2.5 nM pFL35) opposite dT in the template strand was extended, in reactions containing either correct (ddA) or incorrect (ddG) unlabeled ddNTPs (at concentrations of 1.25 nM to 10 nM) ([…]). Similar experiments were performed in which primer extension occured opposite dC in the template strand, in the presence of correct (ddG) or incorrect (ddT) unlabeled ddNTPs (FIG. 28 panel B). Incorporation of ddNMP at the 3′-end of the primer was detected as a shift in primer mobility.\nFidelity assays using unlabeled ddNTPs (10 μl) contained 2.5 nM primer:template (pFL-35:pBluescript), 1 U DNA polymerase, and 1× reaction buffer. Complementary or non-complementary ddNTP was added to the reaction at concentrations of 0, 1.25, 10, 50, or 100 nM. The reactions were incubated in a Perkin-Elmer 9600 for 25 cycles as follows: 96° C. for 10 s, 50° C. for 5 s, and 60° C. for 30 s, and then analyzed as describe above."}, "pBL34A:pBluescript II": {"system": "pBL34A:pBluescript II", "assay": "Kinetics of TAMRA-ddATP insertion versus TAMRA-ddGTP misinsertion opposite dT", "protocol": "To determine the kinetics of misinsertion, the steady state Michaelis-Menten Km and Vmax parameters were calculated by incubations of limiting amounts of enzyme (0.1 units or 5 nM) in presence of 50 nM primer:template and varying concentrations of non-complementary rhodamine labeled ddNTP (1 nM to 10,000 nM) for 10 minutes at 60° C. Analysis and quantitations were performed as above.\nTo gain more insight into the mechanism of lower fidelity, we determined the misinsertion frequency for the mispair ddG:dT, which was evaluated in terms of relative Km and Vmax values for the wrong versus correct dye-ddNTP. Efficiency of nucleotide misinsertion was determined opposite a DNA template dT, primed with a 34-nucleotide oligomer (pBL34A). Apparent Michaelis constant (Km) and maximum velocity (Vmax) and relative insertion frequencies were measured for ddATP and ddGTP (Table X).\nTo determine the kinetics of misinsertion, Km and Vmax values were calculated by incubating limiting amounts of enzyme (0.1 units, 5 nM) in presence of 50 nM primer:template (pBL34A:pBluescript II) and varying concentrations of non-complementary rhodamine-ddGTP (1-10,000 nM) for 10 minutes at 60° C. Analysis and quantitation were performed as above."}, "[1]": {"system": "pBL25C and Temp-A, Temp-T, Temp-C, or Temp-G", "assay": "Rhodamine labeled ddNTP incorporation, TAMRA- and R110-ddNTPs (FIG. 16)", "protocol": "These experiments were performed using 1 unit of enzyme, 15 nM primer:template (pBL25C and Temp-A, Temp-T, Temp-C, or Temp-G in four separate reactions), and 50 nM dye-ddNTP (TAMRA- or R110-labeled). The reactions were incubated at 60° C. for 10 minutes and then quenched with ice-cold 0.2 M EDTA (final concentration). The products were purified from unincorporated dye-labeled ddNTPs and analyzed as described above.\nRelative incorporation of rhodamine labeled-ddNTPs by the JDF-3 P410L/A485T and Taq F667Y mutants was determined. We used both TAMRA- and R 110-labeled ddNTPs, and the amount of incorporated dye-ddNTPs was measured in fluorescense units. These experiments were performed using pBL25C as the primer, and Temp-A, Temp-T, Temp-C, or Temp-G as the complementary template in four separate reactions. The only difference between these four primer:template systems is the SNP site, thereby eliminating the possibility that primer:template sequence has an effect on dye-ddNTP incorporation. […] Gardner and Jack had also observed variation in the incorporation of ribonucleotides by the A488L mutant (equivalent to JDF-3 A485) of Vent DNA polymerase (from archaeon Thermococcus litoralis)^15.\nWe performed similar rhodamine labeled-ddNTP incorporation experiments using the same number of units of Taq F667Y."}}, "note": "Like-named read-outs stand apart in the source and are kept apart here.", "data": [{"substance": "Taq F667Y: ThermoSequenase, Taq F667Y mutant DNA polymerase from Amersham Pharmacia Biotech", "values": [{"measurement": "misincorporation of unlabeled ddNTPs", "setting": "pFL-35:pBluescript", "value": "greater tendency to misincorporate unlabeled ddG opposite dT, and unlabeled ddT opposite dC"}, {"measurement": "Km for wrong nucleotide (ddGTP) opposite dT, lower than JDF-3 P410L/A485T", "setting": "pBL34A:pBluescript II", "value": 7, "unit": "fold"}, {"measurement": "misinsertion frequency for ddG:dT, higher than JDF-3 P410L/A485T", "setting": "pBL34A:pBluescript II", "value": "~17", "unit": "fold"}, {"measurement": "M.F. (M.E./I.E.) misinsertion frequency", "setting": "pBL34A:pBluescript II; ddG:dT mispair", "value": 0.053}, {"measurement": "misinsertion frequency for ddG:dT, higher than JDF-3 P410L/A485T", "setting": "pBL34A:pBluescript II; listed as Taq F667Y mutant", "value": "approximately 17 fold"}, {"measurement": "I.E. Vmax, TAMRA-ddATP insertion", "setting": "pBL34A:pBluescript II; opposite dT, pBL34A primer", "value": 1.9}, {"measurement": "M.E. Vmax, TAMRA-ddGTP misinsertion", "setting": "pBL34A:pBluescript II; opposite dT, pBL34A primer", "value": 16.9}, {"measurement": "Km", "setting": "pBL34A:pBluescript II; opposite dT, pBL34A primer, read-out: I.E. Km, TAMRA-ddATP insertion", "value": 0.0006, "unit": "µM"}, {"measurement": "Km", "setting": "pBL34A:pBluescript II; opposite dT, pBL34A primer, read-out: M.E. Km, TAMRA-ddGTP misinsertion", "value": 0.1, "unit": "µM"}, {"measurement": "preference order of ddNTP bases", "setting": "[1]", "value": "G>C>A>T"}]}]}
